Peptide text beside a SMILES is read from it.
How the values were obtained:
[1] = target: T1, batroxobin fibrin monomer (Homo sapiens, UniProt P02671+P02675+P02679); assay: Sephadex gel equilibrium binding, batroxobin fibrin monomer; conditions: 17 experiments, mean and standard deviation
T1 construct: fibrin monomer which was formed by batroxobin (lacking fibrinopeptide A); made in house; host or cells: not recombinant: made from fibrinogen by treatment with batroxobin (Bothrops atrox venom enzyme)
T1 sequence (P02671 36-629 isoform P02671-2): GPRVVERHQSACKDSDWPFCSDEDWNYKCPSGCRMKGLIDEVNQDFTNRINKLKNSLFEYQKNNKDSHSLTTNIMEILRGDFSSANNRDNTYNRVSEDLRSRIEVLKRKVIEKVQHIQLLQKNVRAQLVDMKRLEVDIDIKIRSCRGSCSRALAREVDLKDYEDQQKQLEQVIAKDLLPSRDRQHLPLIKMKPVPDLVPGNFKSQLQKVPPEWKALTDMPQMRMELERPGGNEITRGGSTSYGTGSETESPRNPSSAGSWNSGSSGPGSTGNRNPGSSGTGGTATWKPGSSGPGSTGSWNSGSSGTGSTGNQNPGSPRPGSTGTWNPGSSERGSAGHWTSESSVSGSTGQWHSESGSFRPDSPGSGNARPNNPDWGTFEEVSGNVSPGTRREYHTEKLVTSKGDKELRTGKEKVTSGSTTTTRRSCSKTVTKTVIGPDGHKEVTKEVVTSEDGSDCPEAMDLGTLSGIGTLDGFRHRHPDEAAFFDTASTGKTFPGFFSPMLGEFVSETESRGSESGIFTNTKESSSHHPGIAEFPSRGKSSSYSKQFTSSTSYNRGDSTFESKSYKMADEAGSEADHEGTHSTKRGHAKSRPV
T1 sequence (P02675 31-491): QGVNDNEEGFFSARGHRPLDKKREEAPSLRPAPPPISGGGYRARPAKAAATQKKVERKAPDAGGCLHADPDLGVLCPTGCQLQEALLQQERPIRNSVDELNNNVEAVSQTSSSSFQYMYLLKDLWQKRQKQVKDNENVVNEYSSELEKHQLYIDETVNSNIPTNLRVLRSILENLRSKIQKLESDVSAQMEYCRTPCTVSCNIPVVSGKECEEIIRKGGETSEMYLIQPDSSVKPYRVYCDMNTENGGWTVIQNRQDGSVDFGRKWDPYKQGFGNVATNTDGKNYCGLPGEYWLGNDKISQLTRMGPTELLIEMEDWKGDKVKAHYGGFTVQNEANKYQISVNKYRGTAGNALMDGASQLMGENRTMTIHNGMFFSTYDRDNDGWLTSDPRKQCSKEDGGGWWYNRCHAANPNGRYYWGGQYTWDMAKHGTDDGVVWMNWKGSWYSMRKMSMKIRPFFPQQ
T1 sequence (P02679 27-437 isoform P02679-2): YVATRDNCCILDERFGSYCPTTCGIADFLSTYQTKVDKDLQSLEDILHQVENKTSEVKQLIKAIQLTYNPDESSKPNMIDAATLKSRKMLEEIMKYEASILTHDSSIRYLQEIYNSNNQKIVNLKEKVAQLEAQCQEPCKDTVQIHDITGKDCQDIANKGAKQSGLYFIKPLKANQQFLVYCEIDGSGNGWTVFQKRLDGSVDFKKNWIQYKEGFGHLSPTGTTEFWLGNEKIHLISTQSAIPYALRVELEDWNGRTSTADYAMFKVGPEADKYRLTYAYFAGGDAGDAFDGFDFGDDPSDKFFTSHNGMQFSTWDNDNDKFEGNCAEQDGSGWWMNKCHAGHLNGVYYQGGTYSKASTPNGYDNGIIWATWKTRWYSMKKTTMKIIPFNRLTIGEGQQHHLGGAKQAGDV
Method: Acta 133, 376-379 (1979).
The purification of NDSK involves incubation of fibrinogen in cyanogen bromide in the presence of 70% formic acid. This treatment may alter the binding sites. Therefore, an attempt was made to reproduce the data using fibrin monomer instead of thrombin-treated NDSK. A major difficulty, the self-polymerization of fibrin monomer, was overcome by using high molar ratios of D1 Peptide to fibrin monomer. However, in this situation the concentration of D1 Peptide could be varied only over a small range of concentrations. D1 Peptide was added to the Sephadex gel equilibrium system and incubated for 10 min., then soluble fibrin monomer was added in a molar excess of D1 Peptide to fibrin monomer of 100-1000 fold. Under these conditions the lag time in the fibrin monomer polymerization was more than 30 min.
In experiments using thrombin fibrin monomer the number of binding sites for D1 Peptide was 1.82±0.26 (15 experiments, mean and standard deviation). For batroxobin fibrin monomer the number of binding sites was 1.91±0.24 (17 experiments, mean and standard deviation).

fibrinogen = target: T2, fibrinogen (Homo sapiens, UniProt P02671+P02675+P02679); assay: Delay of onset of fibrin polymerization, fibrinogen in the presence of thrombin; type: biochemical; conditions: 1:1 ratio of D1 Peptide to fibrinogen in the presence of thrombin
T2 sequence (P02671 36-629 isoform P02671-2): T1 sequence (P02671 36-629 isoform P02671-2)
T2 sequence (P02675 45-491): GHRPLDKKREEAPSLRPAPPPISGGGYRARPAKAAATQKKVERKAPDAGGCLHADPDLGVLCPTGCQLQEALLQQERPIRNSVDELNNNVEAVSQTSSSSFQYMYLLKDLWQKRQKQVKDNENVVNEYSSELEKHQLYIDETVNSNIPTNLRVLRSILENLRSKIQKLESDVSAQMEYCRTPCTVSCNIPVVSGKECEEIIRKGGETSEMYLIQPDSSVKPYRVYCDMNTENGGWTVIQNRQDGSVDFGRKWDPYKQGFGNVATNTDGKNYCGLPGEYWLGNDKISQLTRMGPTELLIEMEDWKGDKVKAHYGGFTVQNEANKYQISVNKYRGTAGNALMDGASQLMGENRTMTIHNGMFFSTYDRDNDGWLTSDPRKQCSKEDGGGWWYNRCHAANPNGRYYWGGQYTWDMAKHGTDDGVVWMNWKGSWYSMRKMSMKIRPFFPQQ
T2 sequence (P02679 27-437 isoform P02679-2): T1 sequence (P02679 27-437 isoform P02679-2)

[2] = Elimination from the blood; type: in vivo; conditions: no method described

CC[C@H](C)[C@H](NC(=O)[C@H](CCCCN)NC(=O)[C@H](CCSC)NC(=O)[C@@H](NC(=O)[C@@H](NC(=O)[C@H](CCCCN)NC(=O)[C@H](CCCCN)NC(=O)[C@H](CCSC)NC(=O)[C@H](CO)NC(=O)[C@H](Cc1ccc(O)cc1)NC(=O)[C@H](Cc1c[nH]c2ccccc12)NC(=O)[C@H](CCCNC(=N)N)NC(=O)[C@@H](N)[C@@H](C)O)[C@@H](C)O)[C@@H](C)O)C(=O)N[C@H](C(=O)N1CCC[C@H]1C(=O)N[C@@H](Cc1ccccc1)C(=O)N[C@@H](CC(N)=O)C(=O)N[C@@H](CCCNC(=N)N)C(=O)N[C@@H](CC(C)C)C(=O)N[C@H](C(=O)N[C@H](C(=O)NCC(=O)N[C@@H](CCC(=O)O)C(=O)NCC(=O)N[C@@H](CCC(N)=O)C(=O)N[C@@H](CCC(N)=O)C(=O)N[C@@H](Cc1c[nH]cn1)C(=O)N[C@@H](Cc1c[nH]cn1)C(=O)N[C@@H](CC(C)C)C(=O)NCC(=O)NCC(=O)N[C@@H](C)C(=O)N[C@@H](CCCCN)C(=O)N[C@@H](CCC(N)=O)C(=O)N[C@@H](C)C(=O)NCC(=O)N[C@@H](CC(=O)O)C(=O)N[C@H](C(=O)O)C(C)C)[C@@H](C)CC)[C@@H](C)O)[C@@H](C)CC [D1 Peptide] (H-TRWYSMKKTTMKIIPFNRLTIGEGQQHHLGGAKQAGDV-OH)
number of binding sites for D1 Peptide [1]: 1.91±0.24
delay of the onset of fibrin polymerization (fibrinogen): 8 min
elimination from the blood [2]: rapidly eliminated

From US4455290A, “Inhibition of fibrin polymerization by a peptide isolated from fibrin Fragment D1” (Research Corporation, priority 1981, dated 1984)
